Measurements as given in PMC4138887, “Natural Product Polyamines That Inhibit Human Carbonic Anhydrases” (BioMed Research International, 2014).
≈ marks a conversion by molar mass, not a printed value.

Experiments:
hCA I = biological target: T1, hCA I (Homo sapiens, UniProt P00915); test: stopped-flow CO2 hydration CA inhibition assay; type: biochemical; settings: recombinant human CA I; stopped-flow CO2 hydrase assay; errors ±5%, three determinations; read-out: K i CA I
T1 construct: made in house; host or cells: E. coli
From the text: (§1) An Applied Photophysics stopped-flow instrument was used for assaying the CA-catalyzed CO2 hydration activity [26]. IC50 values were obtained from dose response curves working at seven different concentrations of test compound; by fitting the curves using PRISM (http://www.graphpad.com/) and nonlinear least squares methods, values represent the mean of at least three different determinations as described by us previously [27]. The inhibition constants (K i) were then derived by using the Cheng-Prusoff equation [28] as follows: K i = IC50/(1 + [S]/K m), where [S] represents the CO2 concentration at which the measurement was carried out and K m is the concentration of substrate at which the enzyme activity is at half maximal. All enzymes used were recombinant, produced in E. coli as reported earlier [29, 30].

hCA II = biological target: T2, hCA II (Homo sapiens, UniProt P00918); test: stopped-flow CO2 hydration CA inhibition assay; type: biochemical; settings: recombinant human CA II; stopped-flow CO2 hydrase assay; errors ±5%, three determinations; read-out: K i CA II
T2 construct: made in house; host or cells: E. coli
From the text: as §1

hCA IV = biological target: T3, hCA IV (Homo sapiens, UniProt P22748); test: stopped-flow CO2 hydration CA inhibition assay; type: biochemical; settings: recombinant human CA IV; stopped-flow CO2 hydrase assay; errors ±5%, three determinations; read-out: K i CA IV
T3 construct: made in house; host or cells: E. coli
From the text: as §1

hCA IX = biological target: T4, hCA IX (Homo sapiens, UniProt Q16790); test: stopped-flow CO2 hydration CA inhibition assay; type: biochemical; settings: recombinant human CA IX; stopped-flow CO2 hydrase assay; errors ±5%, three determinations; read-out: K i CA IX
T4 construct: made in house; host or cells: E. coli
From the text: as §1

hCA XII = biological target: T5, hCA XII (Homo sapiens, UniProt O43570); test: stopped-flow CO2 hydration CA inhibition assay; type: biochemical; settings: recombinant human CA XII; stopped-flow CO2 hydrase assay; errors ±5%, three determinations; read-out: K i CA XII
T5 construct: made in house; host or cells: E. coli
From the text: as §1

hCA XIV = biological target: T6, hCA XIV (Homo sapiens, UniProt Q9ULX7); test: stopped-flow CO2 hydration CA inhibition assay; type: biochemical; settings: recombinant human CA XIV; stopped-flow CO2 hydrase assay; errors ±5%, three determinations; read-out: K i CA XIV
T6 construct: made in house; host or cells: E. coli
From the text: An Applied Photophysics stopped-flow instrument was used for assaying the CA-catalyzed CO2 hydration activity [26]. IC50 values were obtained from dose response curves working at seven different concentrations of test compound; by fitting the curves using PRISM (http://www.graphpad.com/) and nonlinear least squares methods, values represent the mean of at least three different determinations as described by us previously [27]. The inhibition constants (K i) were then derived by using the Cheng-Prusoff equation [28] as follows: K i = IC50/(1 + [S]/K m), where [S] represents the CO2 concentration at which the measurement was carried out and K m is the concentration of substrate at which the enzyme activity is at half maximal.

[1] = system: drug sensitive Plasmodium falciparum parasite line (3D7); set-up: method as in earlier work; settings: drug sensitive parasite line 3D7; read-out: IC50 towards Plasmodium falciparum 3D7; cited from earlier work
Pseudomonas aeruginosa = system: Pseudomonas aeruginosa; set-up: method as in PMID 22515429; settings: antibacterial, cited from earlier work

T1 sequence (P00915 whole entry): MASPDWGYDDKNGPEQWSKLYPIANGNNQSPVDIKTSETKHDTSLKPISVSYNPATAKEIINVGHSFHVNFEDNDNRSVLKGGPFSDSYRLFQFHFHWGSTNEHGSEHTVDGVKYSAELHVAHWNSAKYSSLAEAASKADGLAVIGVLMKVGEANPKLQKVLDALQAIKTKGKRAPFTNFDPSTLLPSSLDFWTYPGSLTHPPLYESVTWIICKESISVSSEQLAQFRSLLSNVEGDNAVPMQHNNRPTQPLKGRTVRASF
T3 sequence (P22748 19-312): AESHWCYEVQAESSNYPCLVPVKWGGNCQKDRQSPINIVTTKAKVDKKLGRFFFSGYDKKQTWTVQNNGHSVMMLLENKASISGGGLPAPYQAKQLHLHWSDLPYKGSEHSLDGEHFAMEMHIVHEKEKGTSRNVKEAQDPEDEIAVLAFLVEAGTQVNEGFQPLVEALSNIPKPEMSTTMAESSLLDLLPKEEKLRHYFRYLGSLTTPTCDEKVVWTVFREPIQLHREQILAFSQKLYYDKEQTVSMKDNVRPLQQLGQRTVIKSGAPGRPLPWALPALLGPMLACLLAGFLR
T6 sequence (Q9ULX7 16-337): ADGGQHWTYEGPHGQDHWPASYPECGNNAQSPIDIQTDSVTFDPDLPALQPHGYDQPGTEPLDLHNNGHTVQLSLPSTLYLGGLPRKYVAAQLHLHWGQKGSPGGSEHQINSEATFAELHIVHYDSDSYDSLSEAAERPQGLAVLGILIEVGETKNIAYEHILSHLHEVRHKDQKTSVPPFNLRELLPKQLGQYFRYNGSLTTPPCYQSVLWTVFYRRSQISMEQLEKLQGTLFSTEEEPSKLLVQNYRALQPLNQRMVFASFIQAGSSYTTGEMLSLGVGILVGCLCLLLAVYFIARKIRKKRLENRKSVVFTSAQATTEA
T5 sequence (O43570 25-354): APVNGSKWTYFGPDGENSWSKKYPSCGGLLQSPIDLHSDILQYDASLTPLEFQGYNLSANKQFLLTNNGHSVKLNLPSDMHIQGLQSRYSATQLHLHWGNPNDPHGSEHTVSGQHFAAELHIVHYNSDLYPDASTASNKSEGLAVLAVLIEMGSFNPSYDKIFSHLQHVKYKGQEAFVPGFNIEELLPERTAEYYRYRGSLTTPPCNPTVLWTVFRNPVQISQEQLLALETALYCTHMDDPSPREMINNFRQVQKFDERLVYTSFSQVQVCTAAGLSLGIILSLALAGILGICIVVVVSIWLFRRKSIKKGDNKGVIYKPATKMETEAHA

Row | Compound | Ki (hCA I) | Ki (hCA II) | Ki (hCA IV) | Ki (hCA IX) | Ki (hCA XII) | Ki (hCA XIV) | IC50 [1] | MIC against Pseudomonas aeruginosa (Pseudomonas aeruginosa) | IC50 (Pseudomonas aeruginosa; read-out: IC50 against Pseudomonas aeruginosa)
1 | spermatinamine [Polyamine 4] | 0.85 µM | 0.48 µM | > 20 µM | 0.34 µM | > 20 µM | 2.72 µM | 0.23 µM |  | 
2 | COc1c(Br)cc(/C=C/C(=O)NCCCNCCCCN)cc1Br [Polyamine 2, ianthelliformisamine B] | 0.77 µM | 0.37 µM | 9.1 µM | 0.35 µM | 3.48 µM | 2.28 µM |  |  | 
3 | COc1c(Br)cc(/C=C/C(=O)NCCCNCCCCNCCCNC(=O)/C=C/c2cc(Br)c(OC)c(Br)c2)cc1Br [Polyamine 3, ianthelliformisamine C] | 0.86 µM | 0.35 µM | 9.08 µM | 0.27 µM | 3.5 µM | 6.96 µM |  |  | 
4 | O=C(NCCCCNCCCNC(=O)c1ccc(O)c(O)c1)c1ccc(O)c(O)c1 [Polyamine 5, pistillarin] | 0.79 µM | 0.34 µM | 7.03 µM | 0.36 µM | 4.21 µM | 1.52 µM | 1.9 µM |  | 
5 | COc1c(Br)cc(/C=C/C(=O)NCCCNCCCCNCCCN)cc1Br [Polyamine 1, ianthelliformisamine A] | 1.76 µM | 0.41 µM | 6.72 µM | 0.2 µM | 2.81 µM | 2.12 µM |  | 35 µM (≈ 18.2 µg/mL) | 6.8 µM
